Experimental data as given in patent publication US4442044A, “Process for preparing monoesters and diesters of N-alkyl substituted amino methyl phosphonic acid” (priority 1983, dated 1984).

Key:
Experiment in all cases: post-emergent herbicidal activity, greenhouse
Format in all cases: in vivo
Barnyardgrass = tested on: Barnyardgrass
Outline: (§1)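 Seeds or propagules sown in compacted top soil, grown 2–3 weeks in greenhouse, then sprayed with compound solution/suspension containing ~0.4% emulsifier at tabulated rates. Injury scored visually versus untreated controls at ~2 and 4 weeks after treatment, expressed as a herbicidal activity index.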

Canada Thistle = conditions: Table I, 4 WAT
Outline: as §1

Cocklebur = tested on: Cocklebur
Outline: as §1

Crabgrass = conditions: Table II
Outline: as §1

Downy Brome = tested on: Downy Brome
Outline: as §1

Hemp Sesbania = conditions: Table II, 4 WAT
Outline: as §1

Johnsongrass = conditions: Table I, 4 WAT
Outline: as §1

Lambsquarters = tested on: Lambsquarters
Outline: as §1

Morningglory = tested on: Morningglory
Outline: as §1

Panicum Spp = conditions: Table II
Outline: as §1

Quackgrass = conditions: Table I, 4 WAT
Outline: as §1

Rice = conditions: Table II
Outline: as §1

Smartweed = tested on: Smartweed
Outline: as §1

Sorghum = conditions: Table II
Outline: as §1

Soybean = conditions: Table II
Outline: as §1

Sugar Beet = conditions: Table II
Outline: as §1

Velvetleaf = tested on: Velvetleaf
Outline: as §1

Wheat = conditions: Table II
Outline: as §1

Wild Buckwheat = conditions: Table II
Outline: as §1

Yellow Nutsedge = conditions: Table I, 4 WAT, 11.2 kg/h
Outline: as §1

CC(C#N)OP(=O)(O)CNCC(=O)OCCCl (stereo not shown) [Example 7, glycine, N-[[(1-cyanoethoxy)hydroxyphosphinyl]methyl], 2-chloroethyl ester]
post-emergent herbicidal activity index (Barnyardgrass; Table I, 4 WAT, 5.6 kg/h): 3 (75-99% control)
post-emergent herbicidal activity index (Barnyardgrass; Table I, 4 WAT, 11.2 kg/h): 2 (50-74% control)
post-emergent herbicidal activity index (Barnyardgrass; Table II, 2 WAT, 0.01 kg/h): 0 (0-24% control)
post-emergent herbicidal activity index (Barnyardgrass; Table II, 4 WAT, 0.06 kg/h): 2 (50-74% control)
post-emergent herbicidal activity index (Barnyardgrass; Table II, 4 WAT, 0.28 kg/h): 2 (50-74% control)
post-emergent herbicidal activity index (Barnyardgrass; Table II, 4 WAT, 1.12 kg/h): 3 (75-99% control)
post-emergent herbicidal activity index (Barnyardgrass; Table II, 4 WAT, 5.6 kg/h): 3 (75-99% control)
post-emergent herbicidal activity index (Canada Thistle; 5.6 kg/h): 2 (50-74% control)
post-emergent herbicidal activity index (Canada Thistle; 11.2 kg/h): 2 (50-74% control)
post-emergent herbicidal activity index (Cocklebur; Table I, 4 WAT, 5.6 kg/h): 4 (100% control)
post-emergent herbicidal activity index (Cocklebur; Table I, 4 WAT, 11.2 kg/h): 3 (75-99% control)
post-emergent herbicidal activity index (Cocklebur; Table II, 2 WAT, 0.01 kg/h): 0 (0-24% control)
post-emergent herbicidal activity index (Cocklebur; Table II, 4 WAT, 0.06 kg/h): 0 (0-24% control)
post-emergent herbicidal activity index (Cocklebur; Table II, 4 WAT, 0.28 kg/h): 2 (50-74% control)
post-emergent herbicidal activity index (Cocklebur; Table II, 4 WAT, 1.12 kg/h): 2 (50-74% control)
post-emergent herbicidal activity index (Cocklebur; Table II, 4 WAT, 5.6 kg/h): 3 (75-99% control)
post-emergent herbicidal activity index (Crabgrass; 2 WAT, 0.01 kg/h): 2 (50-74% control)
post-emergent herbicidal activity index (Crabgrass; 4 WAT, 0.06 kg/h): 3 (75-99% control)
post-emergent herbicidal activity index (Downy Brome; Table I, 4 WAT, 5.6 kg/h): 2 (50-74% control)
post-emergent herbicidal activity index (Downy Brome; Table I, 4 WAT, 11.2 kg/h): 2 (50-74% control)
post-emergent herbicidal activity index (Downy Brome; Table II, 2 WAT, 0.01 kg/h): 0 (0-24% control)
post-emergent herbicidal activity index (Downy Brome; Table II, 4 WAT, 0.06 kg/h): 1 (25-49% control)
post-emergent herbicidal activity index (Downy Brome; Table II, 4 WAT, 0.28 kg/h): 2 (50-74% control)
post-emergent herbicidal activity index (Downy Brome; Table II, 4 WAT, 1.12 kg/h): 2 (50-74% control)
post-emergent herbicidal activity index (Downy Brome; Table II, 4 WAT, 5.6 kg/h): 3 (75-99% control)
post-emergent herbicidal activity index (Hemp Sesbania; 0.06 kg/h): 0 (0-24% control)
post-emergent herbicidal activity index (Hemp Sesbania; 0.28 kg/h): 3 (75-99% control)
post-emergent herbicidal activity index (Hemp Sesbania; 1.12 kg/h): 2 (50-74% control)
post-emergent herbicidal activity index (Hemp Sesbania; 5.6 kg/h): 4 (100% control)
post-emergent herbicidal activity index (Johnsongrass; 5.6 kg/h): 1 (25-49% control)
post-emergent herbicidal activity index (Johnsongrass; 11.2 kg/h): 0 (0-24% control)
post-emergent herbicidal activity index (Lambsquarters; Table I, 4 WAT, 5.6 kg/h): 4 (100% control)
post-emergent herbicidal activity index (Lambsquarters; Table I, 4 WAT, 11.2 kg/h): 3 (75-99% control)
post-emergent herbicidal activity index (Lambsquarters; Table II, 2 WAT, 0.01 kg/h): 1 (25-49% control)
post-emergent herbicidal activity index (Lambsquarters; Table II, 4 WAT, 0.06 kg/h): 0 (0-24% control)
post-emergent herbicidal activity index (Lambsquarters; Table II, 4 WAT, 0.28 kg/h): 4 (100% control)
post-emergent herbicidal activity index (Lambsquarters; Table II, 4 WAT, 1.12 kg/h): 2 (50-74% control)
post-emergent herbicidal activity index (Lambsquarters; Table II, 4 WAT, 5.6 kg/h): 2 (50-74% control)
post-emergent herbicidal activity index (Morningglory; Table I, 4 WAT, 5.6 kg/h): 2 (50-74% control)
post-emergent herbicidal activity index (Morningglory; Table I, 4 WAT, 11.2 kg/h): 2 (50-74% control)
post-emergent herbicidal activity index (Morningglory; Table II, 2 WAT, 0.01 kg/h): 1 (25-49% control)
post-emergent herbicidal activity index (Morningglory; Table II, 4 WAT, 0.06 kg/h): 2 (50-74% control)
post-emergent herbicidal activity index (Morningglory; Table II, 4 WAT, 0.28 kg/h): 1 (25-49% control)
post-emergent herbicidal activity index (Morningglory; Table II, 4 WAT, 1.12 kg/h): 2 (50-74% control)
post-emergent herbicidal activity index (Morningglory; Table II, 4 WAT, 5.6 kg/h): 2 (50-74% control)
post-emergent herbicidal activity index (Panicum Spp; 2 WAT, 0.01 kg/h): 0 (0-24% control)
post-emergent herbicidal activity index (Panicum Spp; 4 WAT, 0.06 kg/h): 3 (75-99% control)
post-emergent herbicidal activity index (Panicum Spp; 4 WAT, 0.28 kg/h): 3 (75-99% control)
post-emergent herbicidal activity index (Panicum Spp; 4 WAT, 1.12 kg/h): 4 (100% control)
post-emergent herbicidal activity index (Panicum Spp; 4 WAT, 5.6 kg/h): 3 (75-99% control)
post-emergent herbicidal activity index (Quackgrass; 5.6 kg/h): 2 (50-74% control)
post-emergent herbicidal activity index (Quackgrass; 11.2 kg/h): 0 (0-24% control)
post-emergent herbicidal activity index (Rice; 2 WAT, 0.01 kg/h): 0 (0-24% control)
post-emergent herbicidal activity index (Rice; 4 WAT, 0.06 kg/h): 0 (0-24% control)
post-emergent herbicidal activity index (Rice; 4 WAT, 0.28 kg/h): 1 (25-49% control)
post-emergent herbicidal activity index (Rice; 4 WAT, 1.12 kg/h): 3 (75-99% control)
post-emergent herbicidal activity index (Rice; 4 WAT, 5.6 kg/h): 3 (75-99% control)
post-emergent herbicidal activity index (Smartweed; Table I, 4 WAT, 5.6 kg/h): 4 (100% control)
post-emergent herbicidal activity index (Smartweed; Table I, 4 WAT, 11.2 kg/h): 4 (100% control)
post-emergent herbicidal activity index (Smartweed; Table II, 2 WAT, 0.01 kg/h): 0 (0-24% control)
post-emergent herbicidal activity index (Smartweed; Table II, 4 WAT, 0.06 kg/h): 1 (25-49% control)
post-emergent herbicidal activity index (Smartweed; Table II, 4 WAT, 0.28 kg/h): 4 (100% control)
post-emergent herbicidal activity index (Smartweed; Table II, 4 WAT, 1.12 kg/h): 3 (75-99% control)
post-emergent herbicidal activity index (Smartweed; Table II, 4 WAT, 5.6 kg/h): 4 (100% control)
post-emergent herbicidal activity index (Sorghum; 2 WAT, 0.01 kg/h): 0 (0-24% control)
post-emergent herbicidal activity index (Sorghum; 4 WAT, 0.06 kg/h): 2 (50-74% control)
post-emergent herbicidal activity index (Sorghum; 4 WAT, 0.28 kg/h): 2 (50-74% control)
post-emergent herbicidal activity index (Sorghum; 4 WAT, 1.12 kg/h): 2 (50-74% control)
post-emergent herbicidal activity index (Sorghum; 4 WAT, 5.6 kg/h): 3 (75-99% control)
post-emergent herbicidal activity index (Soybean; 2 WAT, 0.01 kg/h): 0 (0-24% control)
post-emergent herbicidal activity index (Soybean; 4 WAT, 0.06 kg/h): 0 (0-24% control)
post-emergent herbicidal activity index (Soybean; 4 WAT, 0.28 kg/h): 1 (25-49% control)
post-emergent herbicidal activity index (Soybean; 4 WAT, 1.12 kg/h): 2 (50-74% control)
post-emergent herbicidal activity index (Soybean; 4 WAT, 5.6 kg/h): 3 (75-99% control)
post-emergent herbicidal activity index (Sugar Beet; 2 WAT, 0.01 kg/h): 0 (0-24% control)
post-emergent herbicidal activity index (Sugar Beet; 4 WAT, 0.06 kg/h): 0 (0-24% control)
post-emergent herbicidal activity index (Sugar Beet; 4 WAT, 0.28 kg/h): 4 (100% control)
post-emergent herbicidal activity index (Sugar Beet; 4 WAT, 1.12 kg/h): 3 (75-99% control)
post-emergent herbicidal activity index (Sugar Beet; 4 WAT, 5.6 kg/h): 4 (100% control)
post-emergent herbicidal activity index (Velvetleaf; Table I, 4 WAT, 5.6 kg/h): 3 (75-99% control)
post-emergent herbicidal activity index (Velvetleaf; Table I, 4 WAT, 11.2 kg/h): 3 (75-99% control)
post-emergent herbicidal activity index (Velvetleaf; Table II, 2 WAT, 0.01 kg/h): 0 (0-24% control)
post-emergent herbicidal activity index (Velvetleaf; Table II, 4 WAT, 0.06 kg/h): 1 (25-49% control)
post-emergent herbicidal activity index (Velvetleaf; Table II, 4 WAT, 0.28 kg/h): 2 (50-74% control)
post-emergent herbicidal activity index (Velvetleaf; Table II, 4 WAT, 1.12 kg/h): 2 (50-74% control)
post-emergent herbicidal activity index (Velvetleaf; Table II, 4 WAT, 5.6 kg/h): 3 (75-99% control)
post-emergent herbicidal activity index (Wheat; 2 WAT, 0.01 kg/h): 0 (0-24% control)
post-emergent herbicidal activity index (Wheat; 4 WAT, 0.06 kg/h): 1 (25-49% control)
post-emergent herbicidal activity index (Wheat; 4 WAT, 0.28 kg/h): 3 (75-99% control)
post-emergent herbicidal activity index (Wheat; 4 WAT, 1.12 kg/h): 3 (75-99% control)
post-emergent herbicidal activity index (Wheat; 4 WAT, 5.6 kg/h): 4 (100% control)
post-emergent herbicidal activity index (Wild Buckwheat; 2 WAT, 0.01 kg/h): 0 (0-24% control)
post-emergent herbicidal activity index (Wild Buckwheat; 4 WAT, 0.06 kg/h): 0 (0-24% control)
post-emergent herbicidal activity index (Wild Buckwheat; 4 WAT, 0.28 kg/h): 2 (50-74% control)
post-emergent herbicidal activity index (Wild Buckwheat; 4 WAT, 1.12 kg/h): 2 (50-74% control)
post-emergent herbicidal activity index (Wild Buckwheat; 4 WAT, 5.6 kg/h): 2 (50-74% control)
post-emergent herbicidal activity index (Yellow Nutsedge): 3 (75-99% control)
